Measured values: US12304909B2, “Compounds and their use in therapy” (IMPERIAL COLLEGE INNOVATIONS LIMITED, priority 2018, dated 2025)

Key:
[1] = system: MRC5 cells; assay: Metabolic activity assay (MTS assay), MRC5; type: cell-based, human
Procedure: Example NMT inhibitors of the present invention were tested for activity in an in vitro metabolic activity assay using the human cell line MRC5. Comparative Examples 1, 2, 3, 4, 5 and 6 were also tested in the same metabolic activity assay. Compounds having activity in inhibiting metabolic activity in the assay are expected to be useful as agents for preventing and/or treating cancer, by virtue of being inhibitors of human NMT1 and/or NMT2.
MRC5 cells (obtained from Dr David Mann's group, Imperial College; cell type: fibroblasts cells which derive from normal lung tissue) were grown in DMEM media (supplemented with 10% FBS) and were seeded in a 96-well plate, 24 h prior to treatment. Cell suspensions were prepared by adjusting the cell density to the appropriate concentration (as stated in the Table 1 below) and 50 μL of the cell suspension was transferred to wells B-G in columns 2-11 of a 96-well plate.
100 μL of growth media (DMEM media) containing 0.2% DMSO was added to wells B-G in columns 2 and 11 as positive controls, and 100 μl of growth media containing Puromycin (3 μg/mL; final concentration in the plate 2 μg/mL) was added to wells B-G in column 3 as a negative control. Seven concentrations of NMT inhibitor stock solution were prepared for each Example (Example 1 and 2) and each Comparative Example (Comparative Examples 1, 2, 3, 4, 5 and 6) tested (same final percentage of DMSO, dilution factor=3 starting from 15 μM or 150 μM). 100 μL of inhibitor stock solution was added to wells B-G in columns 4-10 of a 96-well plate (final concentration of Example compound or Comparative Example compound in the plate starting from 10 μM or 100 μM; total volume in each well was 150 μL). The plate was incubated at 37° C. with 5% CO2 level.
After 72 h, 20 μL MTS reagent (Promega, prepared according to the supplier protocol) was added to each well of the 96-well plate. The plate was incubated at 37° C. for 2 h and the absorbance per well was measured at 490 nm with an EnVision plate reader. The average absorbance value of the negative control (Puromycin-treated cells) was subtracted from each value and the metabolic activity was calculated as a percentage relative to the positive control (DMSO-treated cells). EC50 values were calculated using GraphPad.

[2] = Rat hepatocyte half life; type: in vitro ADME, Sprague-Dawley rats; settings: pooled cryopreserved rat hepatocytes, pH 7.4; pooled male Sprague-Dawley rat hepatocytes; read-out: Rat Hepatocyte t ½
Procedure: Example Compound 1 was tested for metabolic stability in rat metabolic assays using hepatocytes derived from pooled male Sprague-Dawley rats. Comparative Examples 2, 3 and 4 were also tested in the same assay. Compounds having good metabolic stability in the assay are expected to be especially useful as agents for preventing and/or treating cancer, by having a long half-life in human patients.
Frozen pooled rat hepatocytes obtained from LifeTechnologies were thawed and purified according to the manufacturer's instructions. The test compound (4 mM) in DMSO was diluted with acetonitrile to provide a 100 μM sub-stock then further diluted with pH7.4 Krebs-Henseleit buffer supplemented with CaCl2), NaHCO3, HEPES, fructose and glycine) to provide a 2 μM working solution. 25 μL of working solution was incubated at 37° C., treated with 25 μL of rat hepatocyte suspension (containing 1×10^6 cells/mL) and incubated at 37° C. with 5% CO2 level at 95% relative humidity. Wells were incubated for an appropriate time (0, 15, 30, 45, 60 and 75 min) then quenched with 250 μL of acetonitrile containing reference standards diltiazem, 7-ethoxycoumarin and propranolol). The plates were shaken, sonicated for 5 min then cooled to 4° C. until all sampling was complete. All plates were centrifuged at 4000 rpm for 20 min to pellet the debris. 110 μl supernatant was diluted 110 μL water and quantitated using LC-MS/MS.
The results were used to calculate the % Remaining of the test compound at time point t=100×˜[(AUC at time point t)/(AUC at T=0)]. A linear regression curve was fitted to a plot of natural logarithm (In) of AUC against time. The T-half (min)=0.693/slope

[3] = Rat half life in vivo; settings: plasma; rat oral half-life; male Sprague-Dawley rats, 3 mg/kg oral gavage; read-out: Rat or mouse t ½ (rat) (converted)
Procedure: Example Compound 1, and Comparative Examples 2 and 3 were tested for metabolic stability in male Sprague-Dawley rats. Comparative Example 5 was tested for metabolic stability in male CD-1 mice. Compounds having good metabolic stability in rats or mice are expected to be especially useful as agents for preventing and/or treating cancer, by having a long half-life in human patients.
Male Sprague-Dawley rats were fasted for 4 h before dosing. Groups of 3 rats were dosed with Example Compound 1, Comparative Example 2, or Comparative Example 3 • (i) intravenously at a dose of 1 mg/kg using a dose volume 2 mL/kg where the animals are anaesthetized using 3% v/v isoflurane:oxygen mixture and dose administered through lateral tail vein; or • (ii) orally by gavage (OG) at a dose of 3 mg/kg using a dose volume 5 ml/kg to conscious animals.
˜100 μL blood sample were collected after 5 min, 15 min, 30 min, 1 h, 2 h, 4 h, 8 h and 24 h (intravenous) and 15 min, 30 min, 1 h, 2 h, 4 h, 8 h and 24 h (oral) and transferred to heparinized capillary tubes, and subsequently into 0.5 mL microcentrifuge tubes. All blood samples are processed for plasma by centrifugation at 1640×g for 5 min at 4° C. within half an hour of collection. Plasma samples were stored at −20° C. until all samples were collected. All samples were mixed with ice-cold acetonitrile containing an internal standard (IS) in 1:4 v/v and centrifuged at 4000 rpm for 15 min at 15° C. Supernatant was then half diluted in water and loaded for LCMS/MS analysis. Analyte peak area/IS peak area (the ratio) was considered for further data analysis as described below.
Calibration curve and QC samples: Compound stock was prepared and further serial dilutions were carried out. The samples were spiked in blank plasma (1:50). Calibration curve ranged from 1 to 1250 ppb. Three quality control samples were also prepared-high QC (HQC), Mid QC (MQC and Low QC (LQC).

| half-life at 1 µM [2] [h] | half-life [3] [h] | EC50 ([1]; 72 h) [µM] | Structure (SMILES) | EC50 ([1]; Homo sapiens, MRC5, 72 h) [µM] |
| --- | --- | --- | --- | --- |
| 1.35 | 8.3 |  | CNC(=O)c1nn(C)c(C)c1CCOc1cc(F)ccc1-c1ccc2ncc(CCN)n2c1 [Comparative Example 2, 4-(2-{2-[3-(2-aminoethyl)imidazo[1,2-a]pyridin-6-yl]-5-fluorophenoxy}ethyl)-N,1,5-trimethyl-1H-pyrazole-3-carboxamide] | > 6.8 |
| 0.767 | 4.5 |  | CNCCc1cnc2ccc(-c3ccc(F)cc3OCCc3c(C)nn(C)c3C)cn12 [Comparative Example 3, [2-(6-{4-fluoro-2-[2-(1,3,5-trimethyl-1H-pyrazol-4-yl)ethoxy]phenyl}imidazo[1,2-a]pyridin-3-yl)ethyl](methyl)amine] | 5.4 |
| 1.33 | 7.1 | 0.013 | Cc1c(CCOc2cc(Cl)ccc2-c2ccc3ncc(CCN)n3c2)c(C(=O)N(C)C)nn1C [Example Compound 1, 4-(2-{2-[3-(2-aminoethyl)imidazo[1,2-a]pyridin-6-yl]-5-chlorophenoxy}ethyl)-N,N,1,5-tetramethyl-1H-pyrazole-3-carboxamide] |  |
